In paper PMC7714403 (JCI Insight, 2020) one finds Kd, Inhibition and inhibition data, which are given here for one molecule.

Usually Kd stands for the free concentration of one partner at which half of the binding sites on the other are occupied at equilibrium, for simple one-to-one binding. High values mean weaker binding, low ones tighter binding. Broadly, the Inhibition is the change of the read-out against control, counted positive when it falls. By inhibition is commonly meant the drop in the measured response relative to a control, in per cent.

“And” between values parts separate entries of the source, which are not always exact repeats. Equal entries are not always repeated. Where two headings read alike, the source gives them in different places.

The target of assay [1] is T1, FLT3 (Homo sapiens, UniProt P36888).
T1 construct: purchased Eurofins DiscoverX
In words: KdELECT binding assay. To be noted: FLT3 WT.

Assay [2] addresses T2, CSF1R (Homo sapiens, UniProt P07333).
T2 construct: purchased Eurofins DiscoverX
In words: KdELECT binding assay.

Assay [3] relates to ABL, ARG. In words: KiNativ, OCI cells live cell. Format: cell-based, human.
Assay [4] has as its system AKT1, AKT3. In words: KiNativ, OCI cells live cell. In kind it is cell-based, human.
For assay [5], the target named is CDK9 (Homo sapiens, UniProt P50750). Briefly: KiNativ, OCI cells live cell. Format: cell-based. To be noted: 2 h.
For assay [6], the target named is FGR (Homo sapiens, UniProt P09769). Briefly: KiNativ, OCI cells live cell. In kind it is cell-based. To be noted: 2 h, labeling site Activation Loop, peptide […].
Assay [7] deals with IRE1 (Homo sapiens, UniProt O75460). In words: KiNativ, OCI cells live cell. In kind it is cell-based. To be noted: 2 h, labeling site Lys2, peptide […].
The test system of assay [8] is JNK1, JNK2, JNK3. In words: KiNativ, OCI cells live cell. In kind it is cell-based, human. To be noted: labeling site Lys2, peptide DLKPSNIVVK
Assay [9] relates to MAP3K2, MAP3K3. Briefly: KiNativ, OCI cells live cell. Format: cell-based, human. The settings on record: labeling site Lys2, peptide DIKGANILR
For assay [10], the system named is MSK1 domain1, MSK2 domain1. Briefly: KiNativ, OCI cells live cell. In kind it is cell-based, human. To be noted: labeling site ATP Loop, peptide VLGTGAYGKVFLVR
The target in assay [11] is T3, NEK9 (Homo sapiens, UniProt Q8TD19).
T3 sequence (Q8TD19 1-979): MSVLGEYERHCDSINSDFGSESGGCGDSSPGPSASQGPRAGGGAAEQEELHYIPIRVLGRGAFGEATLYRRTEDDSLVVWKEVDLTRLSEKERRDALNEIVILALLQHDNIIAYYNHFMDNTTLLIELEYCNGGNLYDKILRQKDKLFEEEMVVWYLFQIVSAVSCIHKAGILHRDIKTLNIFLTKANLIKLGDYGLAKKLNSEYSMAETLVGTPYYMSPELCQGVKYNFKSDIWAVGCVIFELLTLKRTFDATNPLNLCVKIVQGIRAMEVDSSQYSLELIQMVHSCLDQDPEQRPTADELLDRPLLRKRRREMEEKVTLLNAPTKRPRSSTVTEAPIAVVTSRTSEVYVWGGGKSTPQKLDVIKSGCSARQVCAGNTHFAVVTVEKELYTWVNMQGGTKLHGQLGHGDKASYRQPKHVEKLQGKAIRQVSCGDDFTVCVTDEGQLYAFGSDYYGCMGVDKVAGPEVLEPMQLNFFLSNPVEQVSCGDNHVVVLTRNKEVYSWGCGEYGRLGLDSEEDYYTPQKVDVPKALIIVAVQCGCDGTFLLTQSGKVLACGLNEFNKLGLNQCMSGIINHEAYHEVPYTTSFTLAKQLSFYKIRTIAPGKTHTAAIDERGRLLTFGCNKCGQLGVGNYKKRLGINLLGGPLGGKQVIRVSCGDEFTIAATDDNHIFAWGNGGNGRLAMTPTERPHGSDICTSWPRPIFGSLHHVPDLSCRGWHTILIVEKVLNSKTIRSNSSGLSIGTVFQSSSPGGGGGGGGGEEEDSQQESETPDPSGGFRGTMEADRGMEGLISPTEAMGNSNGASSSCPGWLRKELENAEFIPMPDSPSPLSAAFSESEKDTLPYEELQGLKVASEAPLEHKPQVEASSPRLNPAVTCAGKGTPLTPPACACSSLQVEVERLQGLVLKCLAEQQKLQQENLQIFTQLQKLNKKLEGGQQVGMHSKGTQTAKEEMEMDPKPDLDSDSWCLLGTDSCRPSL
In words: KiNativ, OCI cells live cell. Format: cell-based. The settings on record: 2 h.

In assay [12] the target is PHKg2 (Homo sapiens, UniProt P15735). In words: KiNativ, OCI cells live cell. In kind it is cell-based. The settings on record: 2 h, labeling site Lys1, peptide […].
Assay [13] concerns the target PIK3C3 (Homo sapiens, UniProt Q8NEB9). In words: KiNativ, OCI cells live cell. Format: cell-based. To be noted: 2 h, labeling site ATP.
In assay [14] the test system is SRPK1, SRPK2. Briefly: KiNativ, OCI cells live cell. In kind it is cell-based, human. The settings on record: labeling site Lys1, peptide FVAMKVVK
For assay [15], the target named is T4, STLK5 (Homo sapiens, UniProt Q7RTN6).
T4 sequence (Q7RTN6 1-431): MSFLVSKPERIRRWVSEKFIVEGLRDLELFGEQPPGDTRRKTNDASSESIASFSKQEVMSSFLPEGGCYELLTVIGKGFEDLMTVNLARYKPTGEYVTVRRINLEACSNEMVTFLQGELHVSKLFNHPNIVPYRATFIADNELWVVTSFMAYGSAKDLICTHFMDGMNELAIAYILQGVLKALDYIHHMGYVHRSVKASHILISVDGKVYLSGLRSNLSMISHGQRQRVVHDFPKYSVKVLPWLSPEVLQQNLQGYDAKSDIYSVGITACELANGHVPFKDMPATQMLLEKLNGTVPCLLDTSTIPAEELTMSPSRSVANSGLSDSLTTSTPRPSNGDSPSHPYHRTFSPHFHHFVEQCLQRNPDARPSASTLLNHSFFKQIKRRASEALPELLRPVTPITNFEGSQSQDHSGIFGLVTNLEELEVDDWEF
In words: KiNativ, OCI cells live cell. Format: cell-based. The settings on record: 2 h, labeling site Lys2, peptide […].

In assay [16] the target is TEC (Homo sapiens, UniProt P42680). Briefly: KiNativ, OCI cells live cell. In kind it is cell-based. To be noted: 2 h, labeling site Activation Loop, peptide […].
TEC, sequence (P42680 whole entry): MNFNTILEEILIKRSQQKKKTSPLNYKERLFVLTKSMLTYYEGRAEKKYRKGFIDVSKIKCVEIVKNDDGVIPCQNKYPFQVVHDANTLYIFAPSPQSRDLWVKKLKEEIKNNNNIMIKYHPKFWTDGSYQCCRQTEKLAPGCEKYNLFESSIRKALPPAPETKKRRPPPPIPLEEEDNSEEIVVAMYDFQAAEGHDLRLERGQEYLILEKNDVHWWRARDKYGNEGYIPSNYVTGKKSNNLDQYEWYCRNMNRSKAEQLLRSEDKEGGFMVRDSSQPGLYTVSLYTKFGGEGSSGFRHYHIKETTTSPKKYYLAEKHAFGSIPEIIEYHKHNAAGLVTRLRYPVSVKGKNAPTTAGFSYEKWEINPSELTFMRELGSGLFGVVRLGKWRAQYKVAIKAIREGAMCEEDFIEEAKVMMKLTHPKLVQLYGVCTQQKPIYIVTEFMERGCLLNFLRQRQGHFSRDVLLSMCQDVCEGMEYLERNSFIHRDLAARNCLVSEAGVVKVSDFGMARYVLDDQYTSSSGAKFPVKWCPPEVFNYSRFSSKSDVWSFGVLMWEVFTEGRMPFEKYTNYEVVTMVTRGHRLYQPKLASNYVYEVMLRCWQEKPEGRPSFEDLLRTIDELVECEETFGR

CDK9, sequence (P50750 whole entry): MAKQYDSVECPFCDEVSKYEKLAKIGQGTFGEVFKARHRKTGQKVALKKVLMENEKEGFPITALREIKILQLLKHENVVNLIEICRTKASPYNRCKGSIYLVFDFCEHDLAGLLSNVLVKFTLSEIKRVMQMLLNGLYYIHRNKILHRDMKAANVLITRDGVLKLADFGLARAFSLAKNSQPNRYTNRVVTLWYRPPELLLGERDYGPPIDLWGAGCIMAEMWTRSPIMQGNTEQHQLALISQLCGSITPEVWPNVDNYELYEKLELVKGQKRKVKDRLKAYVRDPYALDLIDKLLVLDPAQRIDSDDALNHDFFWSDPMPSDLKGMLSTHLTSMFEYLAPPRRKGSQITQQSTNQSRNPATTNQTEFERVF
CDK9, sequence (O60563 whole entry partner): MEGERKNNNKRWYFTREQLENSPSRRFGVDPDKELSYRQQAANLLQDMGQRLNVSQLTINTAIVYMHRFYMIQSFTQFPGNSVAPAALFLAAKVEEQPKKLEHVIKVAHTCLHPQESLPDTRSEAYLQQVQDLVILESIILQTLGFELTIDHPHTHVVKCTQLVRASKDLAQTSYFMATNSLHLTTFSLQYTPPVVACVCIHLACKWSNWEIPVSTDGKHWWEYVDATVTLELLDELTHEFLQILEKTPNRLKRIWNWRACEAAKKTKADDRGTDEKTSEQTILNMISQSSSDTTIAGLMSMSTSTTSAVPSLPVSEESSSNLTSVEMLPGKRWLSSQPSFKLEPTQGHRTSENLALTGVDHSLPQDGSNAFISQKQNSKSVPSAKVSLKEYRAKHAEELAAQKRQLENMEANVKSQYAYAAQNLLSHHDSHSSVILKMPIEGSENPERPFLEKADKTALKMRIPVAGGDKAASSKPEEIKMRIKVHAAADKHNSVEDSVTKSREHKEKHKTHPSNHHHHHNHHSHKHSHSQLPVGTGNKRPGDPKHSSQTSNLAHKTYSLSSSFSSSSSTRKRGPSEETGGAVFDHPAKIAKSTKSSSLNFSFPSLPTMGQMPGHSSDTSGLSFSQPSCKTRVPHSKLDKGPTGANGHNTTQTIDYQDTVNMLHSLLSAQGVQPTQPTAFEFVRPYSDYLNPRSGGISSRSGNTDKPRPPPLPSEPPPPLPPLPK
PIK3C3, sequence (Q8NEB9 whole entry): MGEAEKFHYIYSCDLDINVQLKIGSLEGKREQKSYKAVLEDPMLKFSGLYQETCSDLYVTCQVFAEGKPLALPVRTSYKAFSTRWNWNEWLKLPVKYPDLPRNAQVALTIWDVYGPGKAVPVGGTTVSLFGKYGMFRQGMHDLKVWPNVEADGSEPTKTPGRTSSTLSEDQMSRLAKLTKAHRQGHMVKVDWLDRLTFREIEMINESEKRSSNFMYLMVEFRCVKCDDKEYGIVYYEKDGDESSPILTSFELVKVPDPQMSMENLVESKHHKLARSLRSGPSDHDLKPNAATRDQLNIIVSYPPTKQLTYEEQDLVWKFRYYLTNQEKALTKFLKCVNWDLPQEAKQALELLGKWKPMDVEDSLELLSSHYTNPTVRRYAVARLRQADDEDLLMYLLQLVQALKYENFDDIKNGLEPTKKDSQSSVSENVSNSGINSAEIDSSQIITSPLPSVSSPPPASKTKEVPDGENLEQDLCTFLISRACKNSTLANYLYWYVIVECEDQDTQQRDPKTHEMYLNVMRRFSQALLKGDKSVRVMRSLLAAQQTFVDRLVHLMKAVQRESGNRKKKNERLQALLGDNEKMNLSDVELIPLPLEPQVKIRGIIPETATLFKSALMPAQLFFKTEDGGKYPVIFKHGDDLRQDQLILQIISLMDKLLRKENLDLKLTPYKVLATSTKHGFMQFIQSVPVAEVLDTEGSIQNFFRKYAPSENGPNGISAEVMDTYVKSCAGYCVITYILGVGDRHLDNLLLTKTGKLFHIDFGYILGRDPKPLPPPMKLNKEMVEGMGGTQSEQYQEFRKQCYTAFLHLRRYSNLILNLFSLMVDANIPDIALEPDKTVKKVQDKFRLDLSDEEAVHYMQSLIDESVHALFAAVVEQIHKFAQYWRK
T1 sequence (P36888 27-993): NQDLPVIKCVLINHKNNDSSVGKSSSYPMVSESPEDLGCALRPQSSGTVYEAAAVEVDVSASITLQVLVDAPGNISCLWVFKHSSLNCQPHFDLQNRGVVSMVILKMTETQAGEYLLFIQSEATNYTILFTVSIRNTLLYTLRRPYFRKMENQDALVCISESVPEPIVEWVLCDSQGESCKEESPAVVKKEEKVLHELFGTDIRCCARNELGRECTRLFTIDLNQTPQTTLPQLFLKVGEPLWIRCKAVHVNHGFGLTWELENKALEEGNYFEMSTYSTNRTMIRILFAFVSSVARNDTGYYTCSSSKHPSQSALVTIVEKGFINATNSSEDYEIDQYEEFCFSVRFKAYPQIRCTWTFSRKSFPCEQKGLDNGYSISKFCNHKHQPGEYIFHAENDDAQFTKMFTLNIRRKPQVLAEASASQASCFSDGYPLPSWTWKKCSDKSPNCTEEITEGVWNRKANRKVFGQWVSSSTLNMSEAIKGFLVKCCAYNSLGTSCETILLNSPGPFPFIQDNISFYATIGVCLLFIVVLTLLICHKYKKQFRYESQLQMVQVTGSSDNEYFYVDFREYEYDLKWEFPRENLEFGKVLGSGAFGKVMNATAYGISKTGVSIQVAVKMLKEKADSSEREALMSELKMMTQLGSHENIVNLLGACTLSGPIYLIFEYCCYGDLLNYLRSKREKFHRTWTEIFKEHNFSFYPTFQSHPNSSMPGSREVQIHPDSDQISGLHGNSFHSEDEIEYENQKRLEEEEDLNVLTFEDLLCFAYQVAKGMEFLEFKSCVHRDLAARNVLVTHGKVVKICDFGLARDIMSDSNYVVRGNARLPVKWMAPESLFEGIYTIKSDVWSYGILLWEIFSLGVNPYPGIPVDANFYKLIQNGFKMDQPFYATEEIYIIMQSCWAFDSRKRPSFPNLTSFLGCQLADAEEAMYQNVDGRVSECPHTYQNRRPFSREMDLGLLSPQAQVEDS
IRE1, sequence (O75460 19-977): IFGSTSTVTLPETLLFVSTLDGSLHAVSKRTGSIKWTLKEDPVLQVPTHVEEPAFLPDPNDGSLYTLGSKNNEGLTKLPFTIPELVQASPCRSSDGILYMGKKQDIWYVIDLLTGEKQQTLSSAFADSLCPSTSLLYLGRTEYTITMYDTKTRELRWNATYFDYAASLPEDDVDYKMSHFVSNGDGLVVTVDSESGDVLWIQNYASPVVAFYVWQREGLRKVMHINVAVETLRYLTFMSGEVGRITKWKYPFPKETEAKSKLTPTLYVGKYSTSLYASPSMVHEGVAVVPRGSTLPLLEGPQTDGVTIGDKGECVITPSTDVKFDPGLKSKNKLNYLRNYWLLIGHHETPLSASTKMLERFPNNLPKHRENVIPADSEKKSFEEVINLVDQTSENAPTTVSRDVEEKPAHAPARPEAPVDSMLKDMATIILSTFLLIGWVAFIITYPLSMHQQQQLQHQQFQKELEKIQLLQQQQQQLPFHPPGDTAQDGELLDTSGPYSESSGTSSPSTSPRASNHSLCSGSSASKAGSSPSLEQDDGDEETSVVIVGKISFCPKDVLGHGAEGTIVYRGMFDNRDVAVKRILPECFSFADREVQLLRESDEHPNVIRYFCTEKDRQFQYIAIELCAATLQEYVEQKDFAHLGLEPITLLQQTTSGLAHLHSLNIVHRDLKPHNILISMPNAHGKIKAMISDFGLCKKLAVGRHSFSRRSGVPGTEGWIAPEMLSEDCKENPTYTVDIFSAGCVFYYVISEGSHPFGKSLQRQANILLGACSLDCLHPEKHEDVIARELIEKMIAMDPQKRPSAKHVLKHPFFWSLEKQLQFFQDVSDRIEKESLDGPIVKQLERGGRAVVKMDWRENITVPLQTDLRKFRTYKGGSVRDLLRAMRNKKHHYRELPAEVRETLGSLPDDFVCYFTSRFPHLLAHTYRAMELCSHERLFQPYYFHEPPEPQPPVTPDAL
FGR, sequence (P09769 whole entry): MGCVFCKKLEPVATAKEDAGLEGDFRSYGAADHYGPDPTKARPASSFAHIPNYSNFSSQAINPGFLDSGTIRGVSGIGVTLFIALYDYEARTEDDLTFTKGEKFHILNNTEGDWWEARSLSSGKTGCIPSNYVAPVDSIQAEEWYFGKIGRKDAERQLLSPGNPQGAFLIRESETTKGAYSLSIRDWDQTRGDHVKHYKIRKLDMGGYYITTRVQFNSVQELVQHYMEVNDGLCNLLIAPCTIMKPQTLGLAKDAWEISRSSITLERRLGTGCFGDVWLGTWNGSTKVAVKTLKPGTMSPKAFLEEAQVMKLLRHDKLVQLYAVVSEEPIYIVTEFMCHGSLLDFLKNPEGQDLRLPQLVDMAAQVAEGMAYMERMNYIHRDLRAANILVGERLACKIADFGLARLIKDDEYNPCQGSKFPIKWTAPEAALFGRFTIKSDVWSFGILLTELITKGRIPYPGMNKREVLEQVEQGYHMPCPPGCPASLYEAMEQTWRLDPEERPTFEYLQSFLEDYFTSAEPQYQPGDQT

As for `CN1CCN(Cc2ccc(Nc3ncc(Cl)c(Nc4ccccc4S(=O)(=O)N(C)C)n3)cc2)CC1` [TP-0903], the Kd was 0.93 nM and < 5 nM in assay [1]; 16 nM in [2]. Further, the Inhibition in assay [3] (labeling site Activation Loop, peptide LMTGDTYTAHAGAKFPIK) is recorded as 37.3%; in [3] (labeling site Lys1, peptide YSLTVAVKTLKEDTMEVEEFLK), 40.1%; in [4] (labeling site Lys1, peptide YYAMKILK) it was -15.9%; in assay [4] (labeling site Lys2, peptide DLKLENLMLDKDGHIK) it was -30.0%; in [8], 14.0%; in assay [9], 21.4%. The Inhibition is 11.0% in assay [10] and -36.9% in assay [14]. The inhibition at 0.1 µM in assay [5] (labeling site ATP Loop, peptide IGQGTFGEVFKAR) is -30.7%; in assay [5] (labeling site Lys2, peptide DMKAANVLITR), 32.9%; in assay [6] it was 9.5%; in [7], 33.5%; in assay [11], 37.9%; in assay [11] (OCI cells, live cell, labeling site Activation Loop, peptide LGDYGLAKK, read-out: Inhibition), 39.6%. Moreover, the inhibition at 0.1 µM was 40.8% in [11] (OCI cells, live cell, labeling site Lys1, peptide RTEDDSLVVWKEVDLTR, read-out: Inhibition); -5.7% in [12]; -16.8% in [13] (peptide TEDGGKYPVIFKHGDDLR); -18.2% in assay [13] (peptide TEDGGKYPVIFKHGDDLRQDQLILQIISLMDK); -46.6% in assay [15]; 31.9% in assay [16].
